# Laboratory results: patent publication US7459466B2, “Substituted 2-(2,6-dioxopiperidin-3-yl)-phthalimides and -1-oxoisoindolines and method of reducing TNFα levels” (Celgene Corporation, priority 1997, dated 2008)
compound,measurement,value
"CC1(N2C(=O)c3cccc(N)c3C2=O)CCC(=O)NC1=O (stereo not shown) [Example 7, 3-(3-Aminophthalimido)-3-methyl-piperidine-2,6-dione]",melting point,268 to 269 °C
